Reference: US20190142954A1, “POLYMER-BONDED CA4 PHARMACEUTICAL COMPOUND AND PREPARATION METHOD THEREFOR” (priority 2016, published 2019)

Key:
C26 cells = assay: Tumor inhibition effect of polymer-bonded CA4 pharmaceutical compound; format: in vivo; settings: C26 tumor in Balb/C mice, 50.0 mg CA4/kg on day 1, 5 and 9, observation until day 17
Description: The administration dosage was 50.0 mg CA4/kg body weight. Tumor was measured 3 times per week and body weights of mice were recorded, and observation was not stopped until day 17.

[1] = system: C26 murine colon cancer cells; assay: Therapeutic effect on tumor by single administration (pathological H&E analysis); format: in vivo; settings: C26 tumor in Balb/C mice, tail vein injection, 50 mg CA4/kg, 72 hours
Description: 6 Balb/C mice (5-6 weeks old, female, body weight of approximately 20 g) were utilized, and C26 murine colon cancer cells were seeded at the right underarm at 2.0×10^6/mouse, respectively. […] The administration dosage was 50 mg CA4/kg body weight. The mice were sacrificed after 72 hours. Tumor was collected, and pathological H&E analysis was performed.

Compound: COc1ccc(/C=C\c2cc(OC)c(OC)c(OC)c2)cc1OP(=O)([O-])[O-].[Na+].[Na+] [CA4P, Combretastatin A4 phosphate disodium]
- tumor inhibition rate (C26 cells): 24.0%
- tumor pathological analysis after single administration [1]: a wide range of recurrence occurred in the tumor
